The values below come from ChEMBL document CHEMBL1129757 (J Med Chem, 1996).

As a reminder, the Ki is the dissociation constant of the complex between target and ligand, obtained from inhibition or displacement.

Test [1] addresses T1, Melatonin receptor (Gallus gallus, UniProt P49288+P51050+P49285). Nature of the test: Binding affinity towards melatonin receptor in chicken brain.
In test [2] the target is T1, Melatonin receptor. Nature of the test: Binding affinity towards melatonin receptor in Chicken brain Experiment 2.
Test [3] deals with T1, Melatonin receptor. Description: Binding affinity towards melatonin receptor in Chicken brain Experiment 1.

In turn, `CCC(=O)NCCCc1cccc(OC)c1` showed a Ki in test [1] of 0.0056 µM.
In the case of `CCCCC(=O)NCCCCc1ccccc1OC`, in test [1], the Ki amounted to 9.19 µM.
In test [1], `CCCC(=O)NCCc1ccc(OC)cc1` showed a Ki of 17.9 µM.
Compound `CCC(=O)NCCCCc1ccc(OC)cc1` displayed a Ki in test [1] of 1.4 µM.
Same read-out and setting: the figure for `CCCC(=O)NCCc1ccccc1OC` is 0.069 µM; for `CCCCC(=O)NCCCCc1cccc(OC)c1` it is 9.67 µM; for `CCC(=O)NCCCc1ccccc1OC` it is 0.374 µM.
For `CCC(=O)NCCCCc1cccc(OC)c1`, the Ki in test [1] came out at 0.119 µM.
Same read-out and setting: the figure for `CCC(=O)NCc1cccc(OC)c1` is 22 µM.
On the same count and under the same terms, the figure for `CCCCC(=O)NCCc1ccc(OC)cc1` is 70.8 µM; for `CCC(=O)NCCc1c[nH]c2ccc(OC)cc12` it is 0.00019 µM.
On the same count and under the same terms, the figure for `COc1ccc(CCCNC(C)=O)cc1` is 14 µM; for `CCCC(=O)NCCc1ccc(OC)c(OC)c1` it is 0.059 µM.
In the case of `CCCC(=O)NCCCc1cccc(F)c1`, in test [1], the Ki amounted to 0.434 µM.
The same measure, in the same setting: the figure for `CCCC(=O)NCCCCc1ccc(OC)cc1` is 0.822 µM.
On the same count and under the same terms, the figure for `COc1ccc(CCNC(C)=O)cc1OC` is 0.87 µM.
For `COc1cccc(CCCNC(C)=O)c1`, the Ki in test [1] is 0.063 µM.
The same measure, in the same setting: with `CCCC(=O)NCCCCc1ccccc1OC` the figure was 0.116 µM.
The compound `CCCC(=O)NCc1cccc(OC)c1` returned a Ki in test [1] of 13 µM. Against the preceding compound, the Ki is about 110-fold higher.
The compound `COc1ccc(CCCCNC(C)=O)cc1` registered a Ki in test [1] of 7.3 µM.
The same measure, in the same setting: the figure for `CCCC(=O)NCCCc1cccc(Br)c1` is 0.354 µM; for `CCC(=O)NCCc1ccccc1OC` it is 0.135 µM.
`CCCC(=O)NCCCc1ccccc1OC` had a Ki in test [1] of 0.442 µM.
`COc1ccccc1CCCNC(C)=O` showed a Ki in test [1] of 1.43 µM. This Ki is about 3.2-fold higher than that of the compound before.
Same read-out and setting: with `CCCCC(=O)NCCc1cccc(OC)c1` the figure was 0.741 µM.
Same read-out and setting: the figure for `CCCC(=O)NCCc1cccc(OC)c1` is 0.04 µM; for `CCC(=O)NCCCc1cccc(F)c1` it is 0.74 µM; for `CCC(=O)NCCCc1ccc(OC)cc1` it is 2.9 µM.
For `COc1ccccc1CCNC(C)=O`, in test [1], the Ki worked out at 0.573 µM.
`COc1cccc(CNC(C)=O)c1`: the Ki in test [1] is 57 µM. Compared with the last compound, the Ki is about 99-fold higher.
Still for that read-out and setting: with `CCC(=O)NCCCc1cccc(Br)c1` the figure was 0.318 µM; with `CC(=O)NCCCc1cccc(Br)c1`, 0.852 µM.
Still for that read-out and setting: the figure for `CCCCC(=O)NCCc1ccccc1OC` is 16 µM.
On the same count and under the same terms, with `CCC(=O)NCCc1ccc(OC)c(OC)c1` the figure was 0.13 µM; with `CCC(=O)NCCc1ccc(OC)cc1`, 19.2 µM.
In the case of `COc1ccc(CCNC(C)=O)cc1`, the Ki in test [2] was above 1 µM; in test [3], above 100 µM.
For the compound `COc1cccc(CCNC(C)=O)c1`, the Ki in test [3] was 0.958 µM.
As to `CC(=O)NCCCc1cccc(F)c1`, the Ki in test [1] was 1.92 µM.
Same read-out and setting: with `CCCCC(=O)NCCCCc1ccc(OC)cc1` the figure was 7 µM.
Still for that read-out and setting: with `COc1ccc2c(c1)c1c(n2C)CCCC1CNC(C)=O` (stereo unspecified) the figure was 0.00097 µM; with `CCCC(=O)NCCCCc1cccc(OC)c1`, 0.208 µM; with `CCCC(=O)NCCCc1cccc(OC)c1`, 0.0055 µM.
The same measure, in the same setting: with `CCC(=O)NCCc1cccc(OC)c1` the figure was 0.062 µM; with `CCC(=O)NCCCCc1ccccc1OC`, 0.339 µM.
Compound `CC(=O)NCCCc1cccc(Cl)c1` came in with a Ki in test [1] of 0.636 µM.
Same read-out and setting: the figure for `CCCCC(=O)NCCCc1cccc(Cl)c1` is 15.1 µM.
Still for that read-out and setting: with `CCCC(=O)NCCCc1ccc(OC)cc1` the figure was 0.86 µM; with `CCCCC(=O)NCCCc1ccccc1OC`, above 100 µM; with `COc1ccc(Br)cc1CCN`, 0.008 µM.
On the same count and under the same terms, the figure for `CCCC(=O)NCCCc1cccc(Cl)c1` is 0.113 µM.
